Data reported in patent US20240199587A1, “HETEROCYCLIC COMPOUNDS” (Hoffmann-La Roche Inc., priority 2021, published 2024).

The compounds below were run against T1, MAGL (Homo sapiens, UniProt Q99685) (assay: 2-AG assay (MAGL inhibitory activity, hydrolysis of 2-arachidonoylglycerol to arachidonic acid followed by mass spectrometry)). Conditions: 8 μM 2-arachidonoylglycerol, 15 min pre-incubation, 30 min incubation at RT, RapidFire MS readout.
T1 sequence (Q99685 1-303): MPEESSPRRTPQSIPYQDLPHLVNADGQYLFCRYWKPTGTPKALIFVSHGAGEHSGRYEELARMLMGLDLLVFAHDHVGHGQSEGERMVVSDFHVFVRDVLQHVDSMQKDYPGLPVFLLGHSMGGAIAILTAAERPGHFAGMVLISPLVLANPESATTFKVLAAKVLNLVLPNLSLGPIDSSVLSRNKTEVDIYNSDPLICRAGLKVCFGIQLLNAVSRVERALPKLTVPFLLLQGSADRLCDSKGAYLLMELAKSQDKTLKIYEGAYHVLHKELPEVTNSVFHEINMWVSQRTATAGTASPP
Format: biochemical
How it was run: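 Arachidonic acid released from 8 μM 2-arachidonoylglycerol was quantified by online SPE triple-quadrupole MS (negative ESI, 303.1→259.1), normalised to d8-arachidonic acid internal standard. Reaction ran 30 min at RT after 15 min RT compound pre-incubation with […] MAGL in TRIS/EDTA/Tween-20 buffer, 2.5% DMSO.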

IC50 [nM]	SMILES
196	N#Cc1cc(C(F)(F)F)ncc1O[C@H]1CCC2(C1)CN(C(=O)N1CC3(CC(n4cnc(C5(O)CC5)n4)C3)C1)C2 [Example 387, 5-[[(6S)-2-[6-[3-(1-hydroxycyclopropyl)-1,2,4-triazol-1-yl]-2-azaspiro[3.3]heptane-2-carbonyl]-2-azaspiro[3.4]octan-6-yl]oxy]-2-(trifluoromethyl)pyridine-4-carbonitrile]
8.72	O=C(N1CC2(CCC(Cc3ncc(F)cc3F)C2)C1)N1CC2(CC(n3cnc(C4(O)CC4)n3)C2)C1 (stereo not shown) [Example 388, [6-[(3,5-difluoro-2-pyridyl)methyl]-2-azaspiro[3.4]octan-2-yl]-[6-[3-(1-hydroxycyclopropyl)-1,2,4-triazol-1-yl]-2-azaspiro[3.3]heptan-2-yl]methanone]
8.68	O=C(N1CC2(CCC(Cc3ccc(C(F)(F)F)cn3)C2)C1)N1CC2(CC(n3cnc(C4(O)CC4)n3)C2)C1 (stereo not shown) [Example 389, [6-[3-(1-hydroxycyclopropyl)-1,2,4-triazol-1-yl]-2-azaspiro[3.3]heptan-2-yl]-[6-[[5-(trifluoromethyl)-2-pyridyl]methyl]-2-azaspiro[3.4]octan-2-yl]methanone]
30.1	O=C(N1CC2(CC(Cc3ccc(F)cn3)C2)C1)N1CC2(CC(n3cnc(C4(O)CC4)n3)C2)C1 [Example 390, [6-[(5-fluoro-2-pyridyl)methyl]-2-azaspiro[3.3]heptan-2-yl]-[6-[3-(1-hydroxycyclopropyl)-1,2,4-triazol-1-yl]-2-azaspiro[3.3]heptan-2-yl]methanone]
14.1	O=C(N1CC2(CCN(Cc3ccc(C(F)(F)F)cn3)CC2)C1)N1CC2(CC(n3cnc(C4(O)CC4)n3)C2)C1 [Example 391, [6-[3-(1-hydroxycyclopropyl)-1,2,4-triazol-1-yl]-2-azaspiro[3.3]heptan-2-yl]-[7-[[5-(trifluoromethyl)-2-pyridyl]methyl]-2,7-diazaspiro[3.5]nonan-2-yl]methanone]
197	O=C(N1CC2(CCN(Cc3ccc(C(F)(F)F)nc3)CC2)C1)N1CC2(CC(n3cnc(C4(O)CC4)n3)C2)C1 [Example 392, [6-[3-(1-hydroxycyclopropyl)-1,2,4-triazol-1-yl]-2-azaspiro[3.3]heptan-2-yl]-[7-[[6-(trifluoromethyl)-3-pyridyl]methyl]-2,7-diazaspiro[3.5]nonan-2-yl]methanone]
401	COc1cc(C(F)(F)F)ccc1CNC1CN(C(=O)N2CC3(CC(n4cnc(C5(O)CC5)n4)C3)C2)C1 [Example 393, [6-[3-(1-hydroxycyclopropyl)-1,2,4-triazol-1-yl]-2-azaspiro[3.3]heptan-2-yl]-[3-[[2-methoxy-4-(trifluoromethyl)phenyl]methylamino]azetidin-1-yl]methanone]
43.7	CC1(Cc2nnc(-c3ccc(C4CN(C(=O)N5CC6(CC(n7cnc(C8(O)CC8)n7)C6)C5)C4)cc3)[nH]2)CC1 [Example 394, [6-[3-(1-hydroxycyclopropyl)-1,2,4-triazol-1-yl]-2-azaspiro[3.3]heptan-2-yl]-[3-[4-[5-[(1-methylcyclopropyl)methyl]-4H-1,2,4-triazol-3-yl]phenyl]azetidin-1-yl]methanone]
14.7	O=C(N1CC(C23CC(NCC4(C(F)(F)F)CC4)(C2)C3)C1)N1CC2(CC(n3cnc(C4(O)CC4)n3)C2)C1 [Example 395, [6-[3-(1-hydroxycyclopropyl)-1,2,4-triazol-1-yl]-2-azaspiro[3.3]heptan-2-yl]-[3-[3-[[1-(trifluoromethyl)cyclopropyl]methylamino]-1-bicyclo[1.1.1]pentanyl]azetidin-1-yl]methanone]
0.26	CS(=O)(=O)c1cc(Cl)ccc1-c1ccc(C2CN(C(=O)N3CC4(CC(n5cnc(C6(O)CC6)n5)C4)C3)C2)cc1 [Example 396, [3-[4-(4-chloro-2-methylsulfonyl-phenyl)phenyl]azetidin-1-yl]-[6-[3-(1-hydroxycyclopropyl)-1,2,4-triazol-1-yl]-2-azaspiro[3.3]heptan-2-yl]methanone]
